Source: the NIST ThermoML archive (doi:10.1021/je0496950)

Assay: mn = molality of the nth substance listed, in mol/kg
Settings: 101 kPa, Liquid; for speed of sound: Pulse-echo method

[Co+2].[O-][Cl+3]([O-])([O-])[O-].[O-][Cl+3]([O-])([O-])[O-] [cobalt(II) perchlorate] + CC#N
Settings	mass density, 288.13 K [kg/m3]	mass density, 293.15 K [kg/m3]	mass density, 298.15 K [kg/m3]	mass density, 303.15 K [kg/m3]	mass density, 308.15 K [kg/m3]	mass density, 313.15 K [kg/m3]	mass density, 323.15 K [kg/m3]	speed of sound, 298.15 K [m/s]
m1 = 0.0631	799.771	794.418	789.05	783.653	778.228	772.771	761.76	–
m1 = 0.06311	–	–	–	–	–	–	–	1282.4
m1 = 0.1115	809.436	804.1	798.743	793.363	787.958	782.523	771.558	1285.1
m1 = 0.1477	816.764	811.44	806.094	800.726	795.334	789.913	778.975	1287
m1 = 0.1815	823.65	818.333	812.996	807.639	802.256	796.848	785.942	1289
m1 = 0.2169	831.031	825.723	820.399	815.051	809.685	804.289	793.42	1290.7
m1 = 0.2496	837.824	832.525	827.21	821.873	816.516	811.134	800.293	1292.6
m1 = 0.2829	844.904	839.613	834.306	828.983	823.636	818.267	807.451	1294.5
m1 = 0.3172	852.306	847.023	841.727	836.41	831.074	825.719	814.932	1296.4
m1 = 0.3491	859.24	853.965	848.675	843.372	838.048	832.702	821.94	1298.2

[O-][Cl+3]([O-])([O-])[O-].[O-][Cl+3]([O-])([O-])[O-].[Zn+2] [zinc perchlorate] + CC#N
Settings	mass density, 288.13 K [kg/m3]	mass density, 293.15 K [kg/m3]	mass density, 298.15 K [kg/m3]	mass density, 303.15 K [kg/m3]	mass density, 308.15 K [kg/m3]	mass density, 313.15 K [kg/m3]	mass density, 323.15 K [kg/m3]	speed of sound, 298.15 K [m/s]
m1 = 0.05169	797.728	792.369	786.992	781.587	776.154	770.69	759.656	1280.2
m1 = 0.09336	806.167	800.821	795.456	790.063	784.645	779.192	768.19	1281.9
m1 = 0.1233	812.307	806.971	801.611	796.227	790.815	785.374	774.39	1283.1
m1 = 0.1524	818.329	812.997	807.644	802.268	796.864	791.433	780.466	1284.2
m1 = 0.1817	824.45	819.125	813.78	808.412	803.019	797.595	786.657	1285.4
m1 = 0.2106	830.536	825.218	819.877	814.514	809.128	803.712	792.788	1286.8
m1 = 0.2379	836.415	831.101	825.768	820.412	815.033	809.624	798.715	1287.9
m1 = 0.2668	842.682	837.373	832.046	826.696	821.325	815.925	805.037	1289
m1 = 0.2944	848.641	843.338	838.017	832.675	827.308	821.916	811.045	1290.3

[Mn+2].[O-][Cl+3]([O-])([O-])[O-].[O-][Cl+3]([O-])([O-])[O-] [manganese (II) perchlorate] + CC#N
Settings	mass density, 288.15 K [kg/m3]	mass density, 293.15 K [kg/m3]	mass density, 298.15 K [kg/m3]	mass density, 303.15 K [kg/m3]	mass density, 308.15 K [kg/m3]	mass density, 313.15 K [kg/m3]	mass density, 323.15 K [kg/m3]	speed of sound, 298.15 K [m/s]
m1 = 0.07666	–	–	–	–	–	–	–	1282.8
m1 = 0.08738	–	–	–	–	–	–	–	1283.5
m1 = 0.1308	812.076	806.744	801.389	796.009	790.599	785.164	774.198	1286
m1 = 0.1732	820.267	814.947	809.604	804.238	798.846	793.424	782.485	1288.4
m1 = 0.216	828.628	823.32	817.989	812.633	807.252	801.843	790.933	1290.8
m1 = 0.257	836.778	831.471	826.148	820.803	815.431	810.032	799.145	1293
m1 = 0.298	845.062	839.769	834.455	829.123	823.764	818.379	807.522	1295.3
m1 = 0.3364	852.972	847.683	842.377	837.051	831.7	826.326	815.497	1297.9
m1 = 0.3745	860.854	855.574	850.277	844.96	839.624	834.26	823.454	1300.3
m1 = 0.4122	868.75	863.479	858.191	852.884	847.554	842.203	831.418	1302.7
